ChEMBL document CHEMBL5329193, “Targeting Mycobacterium tuberculosis iron-scavenging tools: a recent update on siderophores inhibitors” (RSC Med Chem, 2023)
Converted amounts (≈) assume the structure as drawn.

Tests used:
[1] = test system: Mycobacterium tuberculosis variant bovis; test: Antimycobacterial activity against Mycobacterium bovis BCG assessed as reduction in microbial growth incubated for 15 days by resazurin based reduction assay; type: functional; conditions: 360 h, time 15 day
[2] = test system: Mycobacterium tuberculosis variant bovis; test: Antimycobacterial activity against Mycobacterium bovis BCG ATCC 35734 assessed as inhibition of bacterial growth incubated for 5 days by broth microdilution method; type: functional, organism-based; conditions: BCG ATCC 35734, 120 h
[3] = test system: Mycobacterium tuberculosis variant bovis; test: Antitubercular activity against Mycobacterium bovis BCG assessed as bacterial growth inhibition incubated for 15 days by resazurin based reduction assay; type: functional; conditions: 360 h, time 15 day

Row | Structure (SMILES) | MIC99 [1] [µM] | IC50 [2] [µM] | MIC99 [3] [µM]
1 | N#Cc1cc(OCCOc2ccccc2)cc(-c2ccc(C(=O)O)o2)c1 | 63 | 12.1 | –
2 | N#Cc1cc(-c2ccc(C(=O)O)o2)cc(C(F)(F)F)c1 | – | – | 125 (≈ 35.1 µg/mL)
